According to patent US11613531B2, “Inhibitors of RHO associated coiled-coil containing protein kinase” (Kadmon Corporation, LLC, priority 2017, dated 2023):
Where “and” joins values, the source holds several entries; their conditions need not be identical. Equal entries are not always repeated. Where two headings read alike, the source gives them in different places.

What was measured:
[1] = system: ppMlc (T18/S19) levels in A7R5 cells; test: A7R5 in-cell ELISA (pMLC); assay type: cell-based, Rat; settings: for pMLC % inh A7R5 @ [conc] / inhibition at 10 µM: 10 μM compound; for inhibition at 1 µM / inhibition at 10 µM / IC50: Rattus norvegicus; for inhibition at 1 µM: 1 μM compound; for inhibition at 1 µM / inhibition at 10 µM: read-out: pMLC % inh A7R5 @ [conc]
Method in brief: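 Cellular IC50 came from a nonlinear regression fit of ppMlc (T18/S19) signal, read by colorimetric in-cell ELISA on fixed cells. Rat A7R5 aortic smooth muscle cells had been exposed for 90 min to compounds in 9-point 2-fold serial dilution, 24 h after seeding.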

[2] = target: Recombinant ROCK2 (amino acids 1-552) (Homo sapiens (Human), UniProt O75116); test: Z′-Lyte kinase assay, ROCK2; assay type: biochemical; settings: for inhibition at 1 µM: 1 μM compound, read-out: ROCK2 % inh. @ [conc]
Sequence of Recombinant ROCK2 (amino acids 1-552) (O75116 1-552): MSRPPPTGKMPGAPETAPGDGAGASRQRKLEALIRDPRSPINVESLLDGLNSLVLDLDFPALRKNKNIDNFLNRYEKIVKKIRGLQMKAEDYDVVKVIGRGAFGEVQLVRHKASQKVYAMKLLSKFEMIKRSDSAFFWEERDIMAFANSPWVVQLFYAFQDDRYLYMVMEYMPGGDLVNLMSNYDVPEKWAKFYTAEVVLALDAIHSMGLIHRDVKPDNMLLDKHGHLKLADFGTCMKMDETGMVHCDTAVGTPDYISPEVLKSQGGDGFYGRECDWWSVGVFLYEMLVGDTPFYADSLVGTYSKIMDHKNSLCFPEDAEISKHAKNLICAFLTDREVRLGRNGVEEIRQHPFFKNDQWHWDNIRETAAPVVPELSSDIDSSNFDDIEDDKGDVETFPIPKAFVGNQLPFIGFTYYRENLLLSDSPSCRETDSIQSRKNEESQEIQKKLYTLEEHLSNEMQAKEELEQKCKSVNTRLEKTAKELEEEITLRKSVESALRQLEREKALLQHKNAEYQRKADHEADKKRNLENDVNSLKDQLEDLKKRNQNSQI
Procedure: Determination of Compound's ROCK Inhibitory Activity In Vitro (Z'Lyte Assay).
Recombinant ROCK1 (amino acids 1-535) and ROCK2 (amino acids 1-552) proteins were purchased from ThermoFisher Scientific. Compound's activities were measured by Z′-lyte kinase kit (ThermoFisher Scientific) and IC50 was calculated
In vitro activities for the compounds were measured with Z′-lyte kinase kit (ThermoFisher Scientific). The percent inhibition rate was calculated by normalizing the kinase activity value obtained with 1 μM compound treatment against DMSO control value and then applied to the formula, [1-(compound/DMSO)]×100%. IC50s were calculated using the nonlinear regression curve fit function of the GraphPad Prism software with kinase activities data measured with 9 points 2-fold serial dilution of compounds treatment. In cell pMLC IC50s were calculated with data obtained from A7R5 cell experiments. A7R5 cells were treated with 9 points 2-fold serial dilution of compounds and ppMlc (T18/S19) levels were determined to calculate cellular IC50 values of the compounds using the nonlinear regression curve fit function of the GraphPad Prism software. NIH3T3 cells stably expressing ACTA2-promoter-driven-luciferase were applied to measure ROCK compounds functional IC50s in cells. Cells were plated in 96 well plates to confluence and treated with 9 points serial dilution of compounds in combination with TGFβ1 for 24 hr. Luciferase activities were measured and compound's IC50s were calculated using the nonlinear regression curve fit function of the GraphPad Prism software.

[3] = A7R5, A7R5 cells, ppMlc (T18/S19)
[4] = 9 points 2-fold serial dilution

Compound	inhibition at 1 µM [2] [%]	IC50 [1, 3] [nM]	inhibition at 10 µM ([1]; A7R5, A7R5 cells) [%]	also measured
c1cc(Nc2ccc(-c3cncs3)cc2)nc(N2CCNCC2)n1 [Example 353, 2-(piperazin-1-yl)-N-(4-(thiazol-5-yl)phenyl)pyrimidin-4-amine]	–	–	–	pMLC % inh A7R5 @ [conc] ([1]; A7R5 cells): 25.55%; IC50 [2]: > 10 µM
Cc1cc(Nc2ccc3[nH]ncc3c2)nc(N2CCNC3(CC3)C2)n1 [Example 212, N-(6-methyl-2-(4,7-diazaspiro[2.5]octan-7-yl)pyrimidin-4-yl)-1H-indazol-5-amine]	91.9	–	–	inhibition at 1 µM ([1]; A7R5, A7R5 cells): 16.1%
Nc1nc(-c2ccc(Nc3ccnc(N4CCNCC4)n3)cc2)cs1 [Example 355, 4-(4-((2-(piperazin-1-yl)pyrimidin-4-yl)amino)phenyl)thiazol-2-amine]	–	–	21.9	IC50 [2]: > 10 µM
COc1ccccc1NC1CCCN(c2nccc(Nc3ccc4[nH]ncc4c3)n2)C1 (stereo not shown) [Example 244, N-(2-(3-((2-methoxyphenyl)amino)piperidin-1-yl)pyrimidin-4-yl)-1H-indazol-5-amine]	–	–	0.8	IC50 [2]: > 10 µM
COc1cccc(C2CCN(c3nccc(Nc4ccc(-c5cn[nH]c5)cc4)n3)C2)c1 (stereo not shown) [Example 269, N-(4-(1H-pyrazol-4-yl)phenyl)-2-(3-(3-methoxyphenyl)pyrrolidin-1-yl)pyrimidin-4-amine]	–	–	–	pMLC % inh A7R5 @ [conc] ([1]; A7R5 cells): −5.7% and −7.2%; IC50 [2]: 1.65 µM
CN1CCc2nc(N3C4CCC3CNC4)nc(Nc3ccc(-c4cn[nH]c4)cc3)c2C1 [Example 303, N-(4-(1H-pyrazol-4-yl)phenyl)-2-(3,8-diazabicyclo[3.2.1]octan-8-yl)-6-methyl-5,6,7,8-tetrahydropyrido[4,3-d]pyrimidin-4-amine]	–	–	–	IC50 ([1]; A7R5, A7R5 cells): > 10000 nM; IC50 [2]: 0.257 µM
Cc1cnc(N2CCNCC2)nc1Nc1ccc2[nH]ncc2c1 [Example 95, N-(5-methyl-2-(piperazin-1-yl)pyrimidin-4-yl)-1H-indazol-5-amine]	61	–	46.7	–
Cc1cc(Nc2ccc3[nH]ncc3c2)nc(N2CCCNC(C(C)C)C2)n1 (stereo not shown) [Example 110, N-(2-(3-isopropyl-1,4-diazepan-1-yl)-6-methylpyrimidin-4-yl)-1H-indazol-5-amine]	67.5	1390	50.9	–
Cc1nc(N2CCNCC2C)nc(Nc2ccc3[nH]ncc3c2)c1C (stereo not shown) [Example 27, N-(5,6-dimethyl-2-(2-methylpiperazin-1-yl)pyrimidin-4-yl)-1H-indazol-5-amine]	71.3	–	–	inhibition at 1 µM ([1]; A7R5, A7R5 cells): 16.8%
c1cc(Nc2ccc(-c3ccnc4[nH]ccc34)cc2)nc(N2CCNCC2)n1 [Example 368, N-(4-(1H-pyrrolo[2,3-b]pyridin-4-yl)phenyl)-2-(piperazin-1-yl)pyrimidin-4-amine]	–	–	91.3	IC50 ([1]; A7R5, A7R5 cells): 1630 nM; IC50 [2]: 1.05 µM
OC1CC2CCC(C1)N2c1nccc(Nc2ccc(-c3cn[nH]c3)cc2)n1 (stereo not shown) [Example 259, 8-(4-((4-(1H-pyrazol-4-yl)phenyl)amino)pyrimidin-2-yl)-8-azabicyclo[3.2.1]octan-3-ol]	–	–	–	inhibition at 10 µM ([1]; A7R5 cells): 6.48%; IC50 [2]: > 10 µM
COc1cnc(N2CCCNCC2)nc1Nc1ccc(-c2cn[nH]c2)cc1 [Example 267, N-(4-(1H-pyrazol-4-yl)phenyl)-2-(1,4-diazepan-1-yl)-5-methoxypyrimidin-4-amine]	52.3	–	70	–
c1cc2nc(N3CCCNCC3)nc(Nc3ccc(-c4cn[nH]c4)cc3)c2s1 [Example 264, N-(4-(1H-pyrazol-4-yl)phenyl)-2-(1,4-diazepan-1-yl)thieno[3,2-d]pyrimidin-4-amine]	92.8	514	60.2	IC50 [2, 4]: 0.03 µM
Fc1cnc(N2CC3CC(C2)N3)nc1Nc1ccc2[nH]ncc2c1 [Example 157, N-(2-(3,6-diazabicyclo[3.1.1]heptan-3-yl)-5-fluoropyrimidin-4-yl)-1H-indazol-5-amine]	–	–	–	inhibition at 1 µM ([1]; A7R5, A7R5 cells): 27.2%; IC50 [2, 4]: 0.089 µM
Clc1cnc(N2CC3CCC(C2)N3)nc1Nc1ccc2[nH]ncc2c1 [Example 195, N-(2-(3,8-diazabicyclo[3.2.1]octan-3-yl)-5-chloropyrimidin-4-yl)-1H-indazol-5-amine]	66	–	–	inhibition at 1 µM ([1]; A7R5, A7R5 cells): -3.1%; IC50 [2, 4]: 0.405 µM
c1ccc2c(c1)C(C1CCCNC1)CN2c1nccc(Nc2ccc3[nH]ncc3c2)n1 (stereo not shown) [Example 89, N-(2-(3-(piperidin-3-yl)indolin-1-yl)pyrimidin-4-yl)-1H-indazol-5-amine]	12.7	–	–	inhibition at 1 µM ([1]; A7R5, A7R5 cells): 20.1%
Cc1cc(Nc2ccc3[nH]ncc3c2)nc(N2CCNC(C)CC2)n1 (stereo not shown) [Example 116, N-(6-methyl-2-(5-methyl-1,4-diazepan-1-yl)pyrimidin-4-yl)-1H-indazol-5-amine]	81.9	1020	51.6	–
c1ccc(CNC2CCCN(c3nccc(Nc4ccc5[nH]ncc5c4)n3)C2)cc1 (stereo not shown) [Example 234, N-(2-(3-(benzylamino)piperidin-1-yl)pyrimidin-4-yl)-1H-indazol-5-amine]	–	–	55.6	IC50 [2]: 1.8 µM
CCC1CN(c2nc(C)c(C)c(Nc3ccc4[nH]ncc4c3)n2)CCCN1 (stereo not shown) [Example 26, N-(2-(3-ethyl-1,4-diazepan-1-yl)-5,6-dimethylpyrimidin-4-yl)-1H-indazol-5-amine]	33.5	–	39.9	–

Now from value to compound, other results behind:

inhibition at 1 µM [2] [%]	IC50 [1, 3] [nM]	Compound	inhibition at 10 µM ([1]; A7R5, A7R5 cells) [%]	also measured
82.1	–	CC1CN(c2ncc(F)c(Nc3ccc4[nH]ncc4c3)n2)C(C)CN1 (stereo not shown) [Example 155, N-(2-(2,5-dimethylpiperazin-1-yl)-5-fluoropyrimidin-4-yl)-1H-indazol-5-amine]	–	inhibition at 1 µM ([1]; A7R5, A7R5 cells): 25%
58.5	1700	CCC1CCN(c2ncc(OC)c(Nc3ccc4[nH]ncc4c3)n2)CCN1 (stereo not shown) [Example 54, N-(2-(5-ethyl-1,4-diazepan-1-yl)-5-methoxypyrimidin-4-yl)-1H-indazol-5-amine]	50.1	–
55.1	–	CCC1CN(c2ncc(F)c(Nc3ccc4[nH]ncc4c3)n2)CCCN1 (stereo not shown) [Example 148, N-(2-(3-ethyl-1,4-diazepan-1-yl)-5-fluoropyrimidin-4-yl)-1H-indazol-5-amine]	46	–
71.8	2060	CCC1CCN(c2ncc(F)c(Nc3ccc4[nH]ncc4c3)n2)CCN1 (stereo not shown) [Example 146, N-(2-(5-ethyl-1,4-diazepan-1-yl)-5-fluoropyrimidin-4-yl)-1H-indazol-5-amine]	50.2	–
74.5	1720	COc1cnc(N2CCNC(C)CC2)nc1Nc1ccc2[nH]ncc2c1 (stereo not shown) [Example 53, N-(5-methoxy-2-(5-methyl-1,4-diazepan-1-yl)pyrimidin-4-yl)-1H-indazol-5-amine]	51.3	–
48.5	–	Cc1cnc(N2CCCNC(C)C2)nc1Nc1ccc2[nH]ncc2c1 (stereo not shown) [Example 102, N-(5-methyl-2-(3-methyl-1,4-diazepan-1-yl)pyrimidin-4-yl)-1H-indazol-5-amine]	43.5	IC50 [2, 4]: 1.09 µM
83.3	998	COc1cnc(N2CCCNC(C)C2)nc1Nc1ccc2[nH]ncc2c1 (stereo not shown) [Example 55, N-(5-methoxy-2-(3-methyl-1,4-diazepan-1-yl)pyrimidin-4-yl)-1H-indazol-5-amine]	52.2	–
54	2340	Cc1cnc(N2CCNCC2C)nc1Nc1ccc2[nH]ncc2c1 (stereo not shown) [Example 97, N-(5-methyl-2-(2-methylpiperazin-1-yl)pyrimidin-4-yl)-1H-indazol-5-amine]	52.5	–
78.1	1850	COc1cnc(N2CCNC(C)C2)nc1Nc1ccc2[nH]ncc2c1 (stereo not shown) [Example 31, N-(5-methoxy-2-(3-methylpiperazin-1-yl)pyrimidin-4-yl)-1H-indazol-5-amine]	58	–
41	–	CCC1CN(c2ncc(Cl)c(Nc3ccc4[nH]ncc4c3)n2)CCN1 (stereo not shown) [Example 190, N-(5-chloro-2-(3-ethylpiperazin-1-yl)pyrimidin-4-yl)-1H-indazol-5-amine]	45.9	–
47.9	–	Cc1cnc(N2CCNC(C)C2)nc1Nc1ccc2[nH]ncc2c1 (stereo not shown) [Example 91, N-(5-methyl-2-(3-methylpiperazin-1-yl)pyrimidin-4-yl)-1H-indazol-5-amine]	46.7	–
76.5	1390	Cc1nc(N2CCCNC(C)C2)nc(Nc2ccc3[nH]ncc3c2)c1C (stereo not shown) [Example 22, N-(5,6-dimethyl-2-(3-methyl-1,4-diazepan-1-yl)pyrimidin-4-yl)-1H-indazol-5-amine]	54.2	–
